Consider 21 compounds from PubChem BioAssay (NCI).

Some test systems named below: HCC-2998 colon; SF-295 CNS; UACC-62 melanoma; RPMI-8226 leukemia; UACC-257 melanoma; RXF 393 renal; OVCAR-5 ovarian; IGROV1 ovarian; HL-60(TB) leukemia.
Common to all, as to test: NCI anticancer screen, dose series, 48 h

“And” between values parts separate entries of the source, which are not always exact repeats. Equal entries are not always repeated.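 Interpolation was linear, between the two tested concentrations surrounding the appropriate level; five concentrations were tested over 48 hours in 96-well plates. Here, GI50 denotes the concentration required for 50% inhibition of growth. At the TGI there is no net growth.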 Some results are limits rather than exact numbers.

Turning to `Cn1c(N)nc(=O)c2c1N(C1OC(CO)C(O)C1O)CN2Cc1ccccc1` (stereo unspecified), the TGI with HCC-2998 colon, with SF-295 CNS, in the test with UACC-62 melanoma, with RPMI-8226 leukemia, with UACC-257 melanoma and in the test on RXF 393 renal was over 100 µM throughout. Besides, the TGI in the test with OVCAR-5 ovarian, in the test with IGROV1 ovarian and with HL-60(TB) leukemia was over 100 µM throughout.

Turning to `NC1=NN(c2ccccc2)C(=O)C1C(=O)C(=O)Nc1nccs1` (stereo unspecified), the TGI in the test with HCC-2998 colon, in the test with SF-295 CNS, in the test with UACC-62 melanoma, in the test with RPMI-8226 leukemia, in the test on UACC-257 melanoma and in the test with RXF 393 renal was over 100 µM throughout. The TGI with OVCAR-5 ovarian, in the test with IGROV1 ovarian and with HL-60(TB) leukemia was over 100 µM each time.

`CC(=O)O[C@@]1(C)[C@@H](C)C(=O)O[C@@H]2CCN3CC=C(COC(=O)[C@]1(C)O)[C@H]23`: the TGI with HCC-2998 colon, in the test with UACC-62 melanoma, in the test on RPMI-8226 leukemia, with UACC-257 melanoma, with OVCAR-5 ovarian and in the test with IGROV1 ovarian was over 100 µM each time. The TGI in the test with HL-60(TB) leukemia was over 100 µM.

Take `COc1ccc2c3c(c(C(=O)c4ccccc4)oc13)CCC2`: the TGI is over 100 µM in the test on HCC-2998 colon; over 100 µM in the test with SF-295 CNS; over 100 µM in the test on UACC-62 melanoma; over 100 µM with RPMI-8226 leukemia; over 100 µM with UACC-257 melanoma; 31.3 µM in the test with RXF 393 renal. Further, the TGI in the test on IGROV1 ovarian and with HL-60(TB) leukemia was over 100 µM in each case.

Consider `C/C=C(\CCOS(=O)(=O)c1ccc(C)cc1)[Si](C)(C)C`, for which the TGI in the test on HCC-2998 colon, with SF-295 CNS, with UACC-62 melanoma, with RPMI-8226 leukemia, in the test with UACC-257 melanoma and with RXF 393 renal was over 100 µM in each case. Further, the TGI with OVCAR-5 ovarian, in the test with IGROV1 ovarian and with HL-60(TB) leukemia was over 100 µM throughout.

For `Nc1n[n+](-c2ccccc2)no1`, the TGI is over 100 µM in the test on HCC-2998 colon; over 100 µM in the test on SF-295 CNS; 89.6 µM in the test with UACC-62 melanoma; over 100 µM in the test on RPMI-8226 leukemia; over 100 µM in the test on UACC-257 melanoma; over 100 µM in the test on OVCAR-5 ovarian. Besides, the TGI with IGROV1 ovarian and in the test on HL-60(TB) leukemia was over 100 µM each time.

For the compound `Cc1[nH]c(=O)[nH]c1C(=O)c1ccc(-n2ccnc2)cc1`, the TGI with HCC-2998 colon, in the test on SF-295 CNS, in the test with UACC-62 melanoma, in the test with RPMI-8226 leukemia, in the test with UACC-257 melanoma and with RXF 393 renal was over 100 µM throughout. Also, the TGI in the test with OVCAR-5 ovarian, with IGROV1 ovarian and with HL-60(TB) leukemia was over 100 µM in each case.

With `CC1=C(O)/C(=C/C(C)CCC/C(C)=C/C=C/C(C)CCCc2ccoc2)OC1=O` (stereo unspecified), the TGI was 63 µM in the test on HCC-2998 colon; 81 µM with SF-295 CNS; 66.3 µM with UACC-257 melanoma; over 100 µM with RXF 393 renal; 69.3 µM in the test with OVCAR-5 ovarian; 63.8 µM in the test on HL-60(TB) leukemia.

In the case of `COC(=O)C(C(=O)C(=O)Nc1cccc([N+](=O)[O-])c1)c1nc2ccc([N+](=O)[O-])cc2[nH]c1=O` (stereo unspecified), the TGI in the test with HCC-2998 colon, in the test with SF-295 CNS, in the test on UACC-62 melanoma, with UACC-257 melanoma, with RXF 393 renal and with OVCAR-5 ovarian was over 100 µM throughout. For the same compound, the TGI in the test on IGROV1 ovarian and in the test on HL-60(TB) leukemia was over 100 µM throughout.

`O=C(O/N=C1/CCC/C1=C\c1ccccc1)c1ccc(Cl)c(Cl)c1`: the TGI with HCC-2998 colon, in the test on SF-295 CNS, in the test with UACC-62 melanoma, with RPMI-8226 leukemia, in the test with UACC-257 melanoma and in the test on RXF 393 renal was over 100 µM each time. Moreover, the TGI with OVCAR-5 ovarian, in the test on IGROV1 ovarian and with HL-60(TB) leukemia was over 100 µM throughout.

In the case of `CC(=O)[CH-]C(=O)c1ccccc1.CC(=O)[CH-]C(=O)c1ccccc1.Cc1cc([O-])ccc1Cl.Cc1cc([O-])ccc1Cl.[Ti+4]`, the GI50 in the test with HCC-2998 colon was 5.92 µM; with SF-295 CNS, 29.8 µM; in the test with UACC-62 melanoma it was 17 µM; with RPMI-8226 leukemia it was 19.2 µM; in the test with UACC-257 melanoma, 27.1 µM; in the test on RXF 393 renal it was 26 µM. Also, the figures for the GI50 in the test with OVCAR-5 ovarian, with IGROV1 ovarian and in the test with HL-60(TB) leukemia were 32.7 µM, 26.9 µM and 13.7 µM, respectively. The TGI was 28.1 µM with HCC-2998 colon; 98.7 µM in the test with SF-295 CNS; 44.9 µM with UACC-62 melanoma; 55.3 µM in the test with RPMI-8226 leukemia; 92.4 µM with UACC-257 melanoma; 62.8 µM in the test on RXF 393 renal. In addition, the TGI was over 100 µM in the test with OVCAR-5 ovarian, over 100 µM in the test with IGROV1 ovarian and 44.2 µM with HL-60(TB) leukemia.

For `CCCCCCCCCC(=O)OCC1OC(n2cc(F)c(=O)[nH]c2=O)C(NC(=O)OCc2ccccc2)C(OC(=O)CCCCCCCCC)C1O` (stereo unspecified), the TGI in the test with HCC-2998 colon was over 100 µM; with SF-295 CNS, over 100 µM; with UACC-62 melanoma, over 100 µM; in the test on RPMI-8226 leukemia it was 65.2 µM; in the test with UACC-257 melanoma, over 100 µM; in the test on RXF 393 renal, 44 µM. Also, the TGI was over 100 µM with IGROV1 ovarian and 55.8 µM in the test with HL-60(TB) leukemia.

For `O=C1C2C(C(=O)N1c1ccccc1)C1([N+](=O)[O-])C=C3c4ccccc4N(C(=O)c4ccccc4)C32C2C(=O)N(c3ccccc3)C(=O)C21` (stereo unspecified), the TGI with HCC-2998 colon, in the test on SF-295 CNS, in the test with UACC-62 melanoma, in the test with UACC-257 melanoma, with OVCAR-5 ovarian and with IGROV1 ovarian was over 100 µM each time. Besides, the TGI in the test with HL-60(TB) leukemia was over 100 µM.

With `COC(=O)C12OCC34C(CC5C(C)C6=CC(=O)OC6=CC5(C)C3C(O)C1O)OC(=O)C(O)C24` (stereo unspecified), the GI50 with HCC-2998 colon is 0.075 µM; with SF-295 CNS, 0.351 µM; in the test on UACC-62 melanoma it was 0.262 µM; in the test on RPMI-8226 leukemia it was 0.0333 µM; in the test on UACC-257 melanoma it was 0.339 µM; in the test with RXF 393 renal, 0.403 µM. For the same compound, the GI50 in the test on OVCAR-5 ovarian was 0.599 µM; in the test with IGROV1 ovarian it was 0.17 µM. The TGI is 0.347 µM and 0.676 µM with HCC-2998 colon; 0.956 µM and 6.03 µM with SF-295 CNS; 0.779 µM and 1.91 µM in the test on UACC-62 melanoma; 0.116 µM and 0.25 µM in the test on RPMI-8226 leukemia; 8.5 µM with UACC-257 melanoma; 4.49 µM with RXF 393 renal. Besides, the TGI in the test on OVCAR-5 ovarian was 20.3 µM; with IGROV1 ovarian, 0.436 µM and 1.41 µM; in the test with HL-60(TB) leukemia, 4.27 µM.

Turning to `COc1ccc(/C=C2\CCC(CCN(C)C)(C3=CCCC3)C2=O)cc1Br` (stereo unspecified), the TGI in the test on HCC-2998 colon came to 4.71 µM; with SF-295 CNS, 13.7 µM; in the test with RPMI-8226 leukemia, 5.5 µM; in the test on UACC-257 melanoma, 5.5 µM; with RXF 393 renal, 6.99 µM; with OVCAR-5 ovarian, 27.1 µM. Further, the TGI in the test on IGROV1 ovarian worked out at 14.7 µM; in the test with HL-60(TB) leukemia it was 4.63 µM.

Take `CCc1cc(CCC(=O)Nc2ccccc2[N+](=O)[O-])[nH]c(=S)n1`: the TGI with SF-295 CNS, with UACC-62 melanoma, in the test with UACC-257 melanoma, with RXF 393 renal, in the test on OVCAR-5 ovarian and with IGROV1 ovarian was over 100 µM each time. In the test on HL-60(TB) leukemia, this compound gave a TGI of over 100 µM.

With `O=NNc1ccc(Sc2ccc(NN=O)cn2)nc1`, the TGI in the test with HCC-2998 colon, in the test with SF-295 CNS, with UACC-62 melanoma, in the test on UACC-257 melanoma, with OVCAR-5 ovarian and with IGROV1 ovarian was over 100 µM each time. The TGI with HL-60(TB) leukemia is over 100 µM.

For `O=C(CCn1[nH]c(=O)c(Cl)c(Cl)c1=O)NNC(=O)C[n+]1ccccc1`, the TGI in the test with HCC-2998 colon, in the test with SF-295 CNS, with UACC-62 melanoma, in the test on RPMI-8226 leukemia, in the test on RXF 393 renal and in the test on OVCAR-5 ovarian was over 100 µM in each case. For the same compound, the TGI in the test on IGROV1 ovarian and in the test with HL-60(TB) leukemia was over 100 µM each time.

For `Cc1cccc2c1CCC21OC(=O)c2c1ccc1ccccc21` (stereo unspecified), the TGI is over 100 µM in the test with HCC-2998 colon; over 100 µM with SF-295 CNS; over 100 µM with UACC-62 melanoma; 85.5 µM with UACC-257 melanoma; over 100 µM in the test on RXF 393 renal; over 100 µM with OVCAR-5 ovarian. Also, the TGI is over 100 µM in the test with IGROV1 ovarian and 66 µM in the test with HL-60(TB) leukemia.

As for `O=C(CC(=O)c1cccc2ccccc12)C(=O)NC1C2CC3CC(C2)CC1C3` (stereo unspecified), the TGI with HCC-2998 colon, in the test on SF-295 CNS, in the test with UACC-62 melanoma, in the test on RPMI-8226 leukemia, with UACC-257 melanoma and with OVCAR-5 ovarian was over 100 µM in each case. For the same compound, the TGI in the test on IGROV1 ovarian and in the test with HL-60(TB) leukemia was over 100 µM throughout.

Turning to `CSc1snc2sc3c(Cl)nnnc3c12`, the TGI with HCC-2998 colon is 21.2 µM; with SF-295 CNS, 32 µM; in the test with UACC-62 melanoma, 29.2 µM; with RPMI-8226 leukemia, 56.2 µM; with UACC-257 melanoma it was 26.8 µM; with RXF 393 renal, 25.1 µM. The TGI in the test on OVCAR-5 ovarian was 31 µM; with IGROV1 ovarian it was 37.3 µM.
